Results: patent publication US6770669B1, “Amidine derivatives, preparation and use thereof as medicines” (Societe de Conseils de Recherches et d'Applications …, priority 1999, dated 2004)

What was measured:
[1] = target: T1, MAO-B (Rattus norvegicus, UniProt P19643); test: Effects on the bond of a specific ligand of MAO-B, [3H]Ro 19-6327 (rat cortex mitochondrial preparation); type: binding; conditions: [3H]Ro 19-6327 33 nM, 1 hour at 37° C.
T1 construct: 100 μl of the mitochondrial preparation (2 mg protein/ml) is incubated for 1 hour at 37° C; from tissue; host or cells: rat cortex, mitochondrial fraction
T1 sequence (P19643 1-520): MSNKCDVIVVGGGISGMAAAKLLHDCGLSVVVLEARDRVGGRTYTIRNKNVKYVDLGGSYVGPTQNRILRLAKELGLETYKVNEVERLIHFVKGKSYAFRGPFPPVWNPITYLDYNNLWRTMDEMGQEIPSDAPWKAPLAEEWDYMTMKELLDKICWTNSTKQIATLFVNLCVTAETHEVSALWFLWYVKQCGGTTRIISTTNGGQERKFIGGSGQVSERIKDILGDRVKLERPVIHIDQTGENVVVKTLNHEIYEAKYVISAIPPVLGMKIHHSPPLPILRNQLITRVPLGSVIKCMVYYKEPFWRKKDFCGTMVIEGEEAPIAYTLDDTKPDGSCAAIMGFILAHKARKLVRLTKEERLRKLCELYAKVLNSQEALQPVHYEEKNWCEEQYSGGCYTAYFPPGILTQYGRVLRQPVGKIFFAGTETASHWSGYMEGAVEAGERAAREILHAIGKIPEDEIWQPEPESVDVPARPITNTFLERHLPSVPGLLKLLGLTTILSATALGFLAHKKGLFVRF
Method: Study of the Effects on the Bond of a Specific Ligand of MAO-B, [^3H]Ro 19-6327
The inhibitory activity of the products of the invention is determined by measuring their effects on the bond of a specific ligand of MAO-B, [^3H]Ro 19-6327.
A) Mitochondrial Preparation of the Cortex of Rats
The mitochondrial preparation of the cortex of rats is carried out according to the method described in Cesura A M, Galva M D, Imhof R and Da Prada M, J. Neurochem. 48 (1987), 170-176. The rats are decapitated and their cortex is removed, homogenized in 9 volumes of a 0.32 M sucrose buffer, buffered to pH 7.4 with 5 mM of HEPES, then centrifuged at 800 g for 20 minutes. The supernatants are recovered and the pellets are washed twice with the 0.32 M sucrose buffer as previously. The collected supernatants are centrifuged at 10000 g for 20 minutes. […] The proteinic content of the preparation is determined by the Lowry method.
100 μl of the mitochondrial preparation (2 mg protein/ml) is incubated for 1 hour at 37° C. in an Eppendorf tube, in the presence of 100 μl of [^3H]Ro 19-6327 (33 nM, final concentration) and 100 μl of Tris buffer containing or not containing the inhibitors. […] The radioactivity is determined by counting the samples using liquid scintillation.

[2] = target: T2, neuronal constitutive NO synthase (Rattus norvegicus, UniProt P29476); test: Effects on neuronal constitutive NO synthase of a rat's cerebellum ([3H]L-arginine to [3H]L-citrulline conversion); type: biochemical; conditions: rat cerebellum homogenate; conversion of [3H]L-arginine to [3H]L-citrulline
T2 construct: The reaction is initiated by adding 50 μl of homogenate; from tissue; host or cells: cerebellum of Sprague-Dawley rats (homogenate centrifuged at 21000 g)
Method: Study of the Effects on Neuronal Constitutive NO Synthase of a Rat's Cerebellum
The inhibitory activity of the products of the invention is determined by measuring their effects on the conversion by NO synthase of [^3H]L-arginine to [^3H]L-citrulline according to the modified method of Bredt and Snyder (Proc. Natl. Acad. Sci. USA. (1990) 87: 682-685). The cerebellums of Sprague-Dawley rats (300 g—Charles River) are rapidly removed, dissected at 4° C. and homogenized in a volume of extraction buffer (HEPES 50 mM, EDTA 1 mM, pH 7.4, pepstatin A […], leupeptin […]). The homogenates are then centrifuged at 21000 g for 15 min at 4° C. Dosage is carried out in glass test tubes in which 100 μl of incubation buffer containing 100 mM of HEPES (pH 7.4), 2 mM of EDTA, 2.5 mM of CaCl2, 2 mM of dithiotreitol, 2 mM of reduced NADPH and 10 μg/ml of calmodulin are distributed. 25 μl of a solution containing 100 nM of [^3H]L-arginine (Specific activity: 56.4 Ci/mmole, Amersham) and 40 μM of non-radioactive L-arginine is added. The reaction is initiated by adding 50 μl of homogenate, the final volume being 200 μl (the missing 25 μl are either water or the tested product). […] After passing the samples through a 1 ml column of DOWEX resin, the radioactivity is quantified by a liquid scintillation spectrometer.

C#CCN(C)Cc1ccc(N=C(N)c2cccs2)cc1 [Example 1, N′-(4-{[methyl(2-propynyl)amino]methyl}phenyl)-2-thiophenecarboximidamide]
melting point: 109 to 110 °C | IC50 [1]: < 25 µM | IC50 [2]: < 3.5 µM
